Results as given in publication PMC6994673, “Metabolism of multiple glycosaminoglycans by Bacteroides thetaiotaomicron is orchestrated by a versatile core genetic locus” (Nature Communications, 2020).

Molecular target: T1, BT3349-S1_27^4S-sulf (Bacteroides thetaiotaomicron, UniProt Q8A2F6)
T1 construct: gene BT_3349; pET28a, N- or C-terminal His6, E. coli; Talon and size exclusion; periplasmic, SpII signal peptide
T1 sequence (Q8A2F6 13-508): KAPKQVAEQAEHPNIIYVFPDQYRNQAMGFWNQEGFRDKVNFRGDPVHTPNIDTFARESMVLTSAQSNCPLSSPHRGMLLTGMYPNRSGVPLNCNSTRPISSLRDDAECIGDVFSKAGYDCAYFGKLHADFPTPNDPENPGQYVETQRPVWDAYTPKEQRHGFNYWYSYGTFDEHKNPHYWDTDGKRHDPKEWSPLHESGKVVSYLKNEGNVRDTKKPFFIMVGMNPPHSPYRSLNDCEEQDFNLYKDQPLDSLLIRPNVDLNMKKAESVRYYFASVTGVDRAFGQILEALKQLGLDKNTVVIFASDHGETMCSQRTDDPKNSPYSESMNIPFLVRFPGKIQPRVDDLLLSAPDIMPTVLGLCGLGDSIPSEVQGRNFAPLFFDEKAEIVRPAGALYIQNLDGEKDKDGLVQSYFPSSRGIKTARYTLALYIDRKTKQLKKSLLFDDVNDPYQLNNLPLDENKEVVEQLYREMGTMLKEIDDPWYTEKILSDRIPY
Test: continuous linked assay with GH88, loss of absorbance at […] nm
Type: biochemical
Details: 50 mM MES pH 6.0 or Bis-Tris propane pH 6.5, 150 mM NaCl, 37 °C; kinetic parameters only in supplement, kind not told

SMILES: CC(=O)N[C@H]1C(O)O[C@H](CO)[C@H](OS(=O)(=O)O)[C@@H]1O[C@@H]1OC(C(=O)O)=C[C@H](O)[C@H]1O (stereo partly shown) [Δ4,5UA-GalNAc4S]
- kinetic parameters: monitored via a continuous linked assay using BT3334^GH88 and UA-GalNAc4S as the substrate
